{
  "source": "patent US11541057B2",
  "about": "“Thienopyrimidinone NMDA receptor modulators and uses thereof” (Cadent Therapeutics, Inc., priority 2015, dated 2023)",
  "data": [
    {"biological_target": "T1, NMDA receptor GRIN1/GRIN2B (NR2B) expressed in HEK293 cells (Homo sapiens, UniProt Q13224)", "T1 construct": "host or cells: HEK293", "T1 sequence (Q13224 27-1484, other chains not shown)": "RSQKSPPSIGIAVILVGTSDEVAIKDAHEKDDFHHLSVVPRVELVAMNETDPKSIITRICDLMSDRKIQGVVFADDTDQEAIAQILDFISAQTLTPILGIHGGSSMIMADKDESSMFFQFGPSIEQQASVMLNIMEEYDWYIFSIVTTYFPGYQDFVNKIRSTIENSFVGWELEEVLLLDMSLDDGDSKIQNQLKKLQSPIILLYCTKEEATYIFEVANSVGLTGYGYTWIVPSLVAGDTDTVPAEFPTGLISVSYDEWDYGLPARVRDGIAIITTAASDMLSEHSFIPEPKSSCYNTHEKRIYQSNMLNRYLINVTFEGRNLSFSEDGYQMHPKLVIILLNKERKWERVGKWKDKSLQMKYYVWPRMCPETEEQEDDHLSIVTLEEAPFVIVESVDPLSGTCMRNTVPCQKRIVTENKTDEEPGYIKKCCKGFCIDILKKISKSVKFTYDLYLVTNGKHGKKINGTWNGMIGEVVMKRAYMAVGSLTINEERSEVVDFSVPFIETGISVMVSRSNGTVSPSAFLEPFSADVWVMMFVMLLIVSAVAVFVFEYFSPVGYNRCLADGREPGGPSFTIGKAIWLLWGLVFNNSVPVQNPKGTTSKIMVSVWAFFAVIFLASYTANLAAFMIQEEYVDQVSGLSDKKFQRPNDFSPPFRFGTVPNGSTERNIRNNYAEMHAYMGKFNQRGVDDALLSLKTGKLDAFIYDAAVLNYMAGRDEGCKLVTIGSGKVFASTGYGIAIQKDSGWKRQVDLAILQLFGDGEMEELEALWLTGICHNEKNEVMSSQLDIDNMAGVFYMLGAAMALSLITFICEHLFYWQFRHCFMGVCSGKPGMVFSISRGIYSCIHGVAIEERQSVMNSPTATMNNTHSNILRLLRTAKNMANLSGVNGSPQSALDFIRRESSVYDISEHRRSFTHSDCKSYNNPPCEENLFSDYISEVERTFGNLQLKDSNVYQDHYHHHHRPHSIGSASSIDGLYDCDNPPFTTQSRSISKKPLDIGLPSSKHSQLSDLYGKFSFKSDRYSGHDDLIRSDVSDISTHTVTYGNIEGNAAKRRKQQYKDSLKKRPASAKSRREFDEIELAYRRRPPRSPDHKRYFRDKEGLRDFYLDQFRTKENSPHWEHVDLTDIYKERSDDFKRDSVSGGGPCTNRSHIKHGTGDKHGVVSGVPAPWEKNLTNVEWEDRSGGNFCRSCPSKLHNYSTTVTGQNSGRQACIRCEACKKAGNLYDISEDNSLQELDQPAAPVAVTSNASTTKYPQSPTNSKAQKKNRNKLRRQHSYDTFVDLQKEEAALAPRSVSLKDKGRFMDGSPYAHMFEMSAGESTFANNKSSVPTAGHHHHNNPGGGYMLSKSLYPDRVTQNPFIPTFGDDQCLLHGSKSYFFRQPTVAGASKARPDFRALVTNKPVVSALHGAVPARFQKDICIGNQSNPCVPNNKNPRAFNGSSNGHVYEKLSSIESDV", "test": "Reversal of Ro 25-6981-mediated suppression of the Ca2+ response (fluo-8 fluorescence, FDSS) in HEK293 cells expressing GRIN1 and GRIN2B", "format": "cell-based", "settings": "% reversal=100*(R−Rneg)/(Rpos−Rneg) of Ro 25-6981 suppression of co-agonist (glutamate/glycine) Ca2+ response, 10 min pre-incubation, compound concentration not given", "method_in_brief": "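HEK293 with stable GRIN1 and tetracycline-induced GRIN2B, loaded with fluo-8 and preincubated 10 min with compound plus Ro 25-6981 and 5,7-dichlorokynurenic acid. Ca2+ response recorded 2 min after glutamate/glycine/CaCl2 co-agonist addition. % reversal = 100*(R−Rneg)/(Rpos−Rneg) from end fluorescence ratios.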", "units": {"Response Recovered (%)": "%"}, "values": [
      {"compound": "O=C(CNn1cnc2scc(-c3ccc(Cl)c(C(F)(F)F)c3)c2c1=O)N1CCCC1", "note": "[Example 91, 5-(4-chloro-3-(trifluoromethyl)phenyl)-3-((2-oxo-2-(pyrrolidin-1-yl)ethyl)amino)thieno[2,3-d]pyrimidin-4(3H)-one]", "Response Recovered (%)": 2},
      {"compound": "O=C(Cn1cnc2scc(-c3ccnc(C(F)(F)F)c3)c2c1=O)N1CCCC1", "note": "[Example 46, 3-[2-oxo-2-(pyrrolidin-1-yl)ethyl]-5-[2-(trifluoromethyl)pyridin-4-yl]-3H,4H-thieno[2,3-d]pyrimidin-4-one]", "Response Recovered (%)": "−1"},
      {"compound": "O=C(Cn1cnc2scc(-c3ccc(C(F)(F)F)c(Cl)c3)c2c1=O)N1CCC(F)C1", "note": "(centres unmarked) [Example 62]", "Response Recovered (%)": 62},
      {"compound": "O=C(Cn1cnc2sc(-c3ccc(Cl)cc3)cc2c1=O)N1CCCC1", "note": "[Example 74, 6-(4-chlorophenyl)-3-(2-oxo-2-(pyrrolidin-1-yl)ethyl)thieno[2,3-d]pyrimidin-4(3H)-one]", "Response Recovered (%)": 1},
      {"compound": "Cc1sc2ncn(CC(=O)N3CCCC3)c(=O)c2c1-c1ccc(Cl)c(Cl)c1", "note": "[Example 84, 5-(3,4-dichlorophenyl)-6-methyl-3-[2-oxo-2-(pyrrolidin-1-yl)ethyl]-3H,4H-thieno[2,3-d]pyrimidin-4-one]", "Response Recovered (%)": 60},
      {"compound": "O=C(Cn1cnc2scc(-c3ccc(Cl)c(Cl)c3)c2c1=O)N1CCC(F)C1", "note": "(centres unmarked) [Example 60, 5-(3,4-dichlorophenyl)-3-[2-(3-fluoropyrrolidin-1-yl)-2-oxoethyl]-3H,4H-thieno[2,3-d]pyrimidin-4-one]", "Response Recovered (%)": 98},
      {"compound": "CN1CCC(NC(=O)Cn2cnc3scc(-c4ccc(Cl)cc4)c3c2=O)C1", "note": "(centres unmarked) [Example 7, 2-[5-(4-chlorophenyl)-4-oxo-3H,4H-thieno[2,3-d]pyrimidin-3-yl]-N-(1-methylpyrrolidin-3-yl)acetamide]", "Response Recovered (%)": 3},
      {"compound": "O=C(Cn1cnc2scc(-c3ccc(Cl)cc3)c2c1=O)N1CCCC1C(F)(F)F", "note": "(centres unmarked) [Example 11, 5-(4-chlorophenyl)-3-{2-oxo-2-[2-(trifluoromethyl)pyrrolidin-1-yl]ethyl}-3H,4H-thieno[2,3-d]pyrimidin-4-one]", "Response Recovered (%)": 8},
      {"compound": "O=C(Cn1cnc2scc(-c3ccc(Cl)c(Cl)c3)c2c1=O)N1CC[C@@H](F)C1", "note": "[Example 68, 5-(3,4-dichlorophenyl)-3-{2-[(3R)-3-fluoropyrrolidin-1-yl]-2-oxoethyl}-3H,4H-thieno[2,3-d]pyrimidin-4-one]", "Response Recovered (%)": 71},
      {"compound": "CC(C)(C)c1ccc(-c2csc3ncn(CC(=O)N4CCCC4)c(=O)c23)cc1", "note": "[Example 35, 5-(4-tert-butylphenyl)-3-[2-oxo-2-(pyrrolidin-1-yl)ethyl]-3H,4H-thieno[2,3-d]pyrimidin-4-one]", "Response Recovered (%)": 14},
      {"compound": "O=C(Cn1cnc2scc(-c3ccc(Cl)cc3)c2c1=O)N1CCC(O)(c2ccccc2)CC1", "note": "[Example 15, 5-(4-chlorophenyl)-3-[2-(4-hydroxy-4-phenylpiperidin-1-yl)-2-oxoethyl]-3H,4H-thieno[2,3-d]pyrimidin-4-one]", "Response Recovered (%)": "−1"},
      {"compound": "N#Cc1ccc(-c2csc3ncn(CC(=O)N4CCCC4)c(=O)c23)cc1", "note": "[Example 32, 4-{4-oxo-3-[2-oxo-2-(pyrrolidin-1-yl)ethyl]-3H,4H-thieno[2,3-d]pyrimidin-5-yl}benzonitrile]", "Response Recovered (%)": 2},
      {"compound": "Cc1nc2scc(-c3ccc(Cl)cc3)c2c(=O)n1CC(=O)N1CCCC1", "note": "[Example 98, 5-(4-chlorophenyl)-2-methyl-3-(2-oxo-2-(pyrrolidin-1-yl)ethyl)thieno[2,3-d]pyrimidin-4(3H)-one]", "Response Recovered (%)": 6},
      {"compound": "O=C(COn1cnc2scc(-c3ccc(F)c(Cl)c3)c2c1=O)N1CCCC1", "note": "[Example 93, 5-(3-chloro-4-fluorophenyl)-3-[2-oxo-2-(pyrrolidin-1-yl)ethoxy]-3H,4H-thieno┌2,3-d┐pyrimidin-4-one]", "Response Recovered (%)": "−1"},
      {"compound": "Cc1nc2scc(-c3ccc(Cl)cc3)c2c(=O)n1CC(=O)N1CCCC1C(F)(F)F", "note": "(centres unmarked) [Example 99, 5-(4-chlorophenyl)-2-methyl-3-{2-oxo-2-[2-(trifluoromethyl)pyrrolidin-1-yl]ethyl}-3H,4H-thieno[2,3-d]pyrimidin-4-one]", "Response Recovered (%)": 3},
      {"compound": "CC1CCCC(C)N1C(=O)Cn1cnc2scc(-c3ccc(Cl)cc3)c2c1=O", "note": "(centres unmarked) [Example 12, 5-(4-chlorophenyl)-3-[2-(2,6-dimethylpiperidin-1-yl)-2-oxoethyl]-3H,4H-thieno[2,3-d]pyrimidin-4-one]", "Response Recovered (%)": "−1"},
      {"compound": "O=C(Cn1cnc2scc(-c3ccc(Cl)c(Cl)c3)c2c1=O)N1C[C@@H](F)[C@@H](F)C1", "note": "[Example 67, 5-(3,4-dichlorophenyl)-3-{2-[(3R,4S)-3,4-difluoropyrrolidin-1-yl]-2-oxoethyl}-3H,4H-thieno[2,3-d]pyrimidin-4-one]", "Response Recovered (%)": 84},
      {"compound": "O=C(Cn1c(C(F)(F)F)nc2scc(-c3ccc(Cl)cc3)c2c1=O)N1CCCC1", "note": "[Example 105, 5-(4-chlorophenyl)-3-[2-oxo-2-(pyrrolidin-1-yl)ethyl]-2-(trifluoromethyl)-3H,4H-thieno[2,3-d]pyrimidin-4-one]", "Response Recovered (%)": "−1"},
      {"compound": "O=C(Cn1cnc2scc(-c3cnc(Cl)c(Cl)c3)c2c1=O)N1CC(F)C(F)C1", "note": "(centres unmarked) [Example 72, 5-(5,6-dichloropyridin-3-yl)-3-[2-(3,4-difluoropyrrolidin-1-yl)-2-oxoethyl]-3H,4H-thieno[2,3-d]pyrimidin-4-one]", "Response Recovered (%)": 15},
      {"compound": "O=C(Cn1cnc2scc(-c3ccc(Cl)cc3)c2c1=O)NC1CCC1", "note": "[Example 9, 2-[5-(4-chlorophenyl)-4-oxo-3H,4H-thieno[2,3-d]pyrimidin-3-yl]-N-cyclobutylacetamide]", "Response Recovered (%)": 3},
      {"compound": "O=C(Cn1cnc2scc(-c3ccc(Cl)cc3)c2c1=O)N1CCC(O)C1", "note": "(centres unmarked) [Example 6, 5-(4-chlorophenyl)-3-[2-(3-hydroxypyrrolidin-1-yl)-2-oxoethyl]-3H,4H-thieno[2,3-d]pyrimidin-4-one]", "Response Recovered (%)": 3},
      {"compound": "O=C(Cn1cnc2scc(-c3ccc(Cl)cc3)c2c1=O)N1CCC(O)CC1", "note": "[Example 1, 5-(4-chlorophenyl)-3-(2-(4-hydroxypiperidin-1-yl)-2-oxoethyl)thieno[2,3-d]pyrimidin-4(3H)-one]", "Response Recovered (%)": 0},
      {"compound": "O=C(Cn1cnc2scc(-c3cc(C(F)(F)F)ccc3F)c2c1=O)N1CCCC1", "note": "[Example 54, 5-[2-fluoro-5-(trifluoromethyl)phenyl]-3-[2-oxo-2-(pyrrolidin-1-yl)ethyl]-3H,4H-thieno[2,3-d]pyrimidin-4-one]", "Response Recovered (%)": 20},
      {"compound": "O=C(Cn1cnc2scc(-c3cccc(Cl)c3Cl)c2c1=O)N1CCCC1", "note": "[Example 45, 5-(2,3-dichlorophenyl)-3-[2-oxo-2-(pyrrolidin-1-yl)ethyl]-3H,4H-thieno[2,3-d]pyrimidin-4-one]", "Response Recovered (%)": 7},
      {"compound": "O=C(Cn1cnc2scc(-c3ccc(Cl)c(C(F)(F)F)c3)c2c1=O)N1CCCC1", "note": "[Example 20, 5-(4-chloro-3-(trifluoromethyl)phenyl)-3-(2-oxo-2-(pyrrolidin-1-yl)ethyl)thieno[2,3-d]pyrimidin-4(3H)-one]", "Response Recovered (%)": 76},
      {"compound": "CC(C(=O)N1CCCC1)n1cnc2scc(-c3ccc(Cl)c(C(F)(F)F)c3)c2c1=O", "note": "(centres unmarked) [Example 56, 5-[4-chloro-3-(trifluoromethyl)phenyl]-3-[1-oxo-1-(pyrrolidin-1-yl)propan-2-yl]-3H,4H-thieno[2,3-d]pyrimidin-4-one]", "Response Recovered (%)": 0},
      {"compound": "Cc1sc2ncn(CC(=O)N3CCCC3C(F)(F)F)c(=O)c2c1-c1ccc(Cl)cc1", "note": "(centres unmarked) [Example 80, 5-(4-chlorophenyl)-6-methyl-3-{2-oxo-2-[2-(trifluoromethyl)pyrrolidin-1-yl]ethyl}-3H,4H-thieno[2,3-d]pyrimidin-4-one]", "Response Recovered (%)": 10},
      {"compound": "CN(C)c1ccc(-c2csc3ncn(CC(=O)N4CCCC4)c(=O)c23)cc1", "note": "[Example 49, 5-[4-(dimethylamino)phenyl]-3-[2-oxo-2-(pyrrolidin-1-yl)ethyl]-3H,4H-thieno[2,3-d]pyrimidin-4-one]", "Response Recovered (%)": 0},
      {"compound": "COc1ccc(-c2csc3ncn(CC(=O)N4CCCC4)c(=O)c23)cn1", "note": "[Example 36, 5-(6-methoxypyridin-3-yl)-3-[2-oxo-2-(pyrrolidin-1-yl)ethyl]-3H,4H-thieno[2,3-d]pyrimidin-4-one]", "Response Recovered (%)": 2},
      {"compound": "O=C(On1cnc2scc(-c3ccc(Cl)c(C(F)(F)F)c3)c2c1=O)N1CCCC1", "note": "[Example 85, 5-(4-chloro-3-(trifluoromethyl)phenyl)-4-oxothieno[2,3-d]pyrimidin-3(4H)-yl pyrrolidine-1-carboxylate]", "Response Recovered (%)": 51},
      {"compound": "O=C(Nn1cnc2scc(-c3ccc(F)c(Cl)c3)c2c1=O)C1CCCC1", "note": "[Example 96, N-[5-(3-chloro-4-fluorophenyl)-4-oxo-3H,4H-thieno[2,3-d]pyrimidin-3-yl]cyclopentanecarboxamide]", "Response Recovered (%)": 27},
      {"compound": "CCN(CC)C(=O)Cn1cnc2scc(-c3ccc(Cl)cc3)c2c1=O", "note": "[Example 13, 2-[5-(4-chlorophenyl)-4-oxo-3H,4H-thieno[2,3-d]pyrimidin-3-yl]-N,N-diethylacetamide]", "Response Recovered (%)": 5}
    ]}
  ]
}
